Test results reported in patent US20180098538A1, “CONFIGURATIONAL STEREOISOMER OF DIFETHIALONE, COMPOSITION AND RODENTICIDAL BAIT COMPRISING SAME, AND PROCESS FOR CONTROLLING TARGET RODENT PESTS” (priority 2015, published 2018).

Format: in vivo
Conditions: rats which consumed a bait comprising 15 ppm of difethialone of the prior art
Procedure: For comparative purposes, the difethialone content retained in the liver of rats which consumed a bait comprising 15 ppm of difethialone of the prior art is about 110 μg/gram.

O=c1sc2ccccc2c(O)c1C1CC(c2ccc(-c3ccc(Br)cc3)cc2)Cc2ccccc21 (stereo not shown) [difethialone, 3-(4′-bromobiphenyl-4-yl)-1-(4-hydroxythiocoumarin-3-yl)-1,2,3,4-tetrahydronaphthalene]
Difethialone content retained in the liver: about 110 μg/gram
